Experimental data taken from paper PMC4476799, “Englerin A Agonizes the TRPC4/C5 Cation Channels to Inhibit Tumor Cell Line Proliferation” (PLoS ONE, 2015).
pEC50, pIC50: −log10 of the molar value. Read-outs that look alike come from different tables or passages of the source.

Tested on: cancer cell lines from the cancer cell line encyclopedia (CCLE)
Test: Cell line profiling (CLiP) proliferation experiment
Assay type: cell-based
Settings: Homo sapiens; for pIC50: read-out: Crossing Point; for pEC50: read-out: Inflection Point
Procedure: Compound profiling experiment and data analysis was performed as previously described. Data was imported and plotted using the Tibco Spotfire DXP application. Lines were categorized as sensitive, intermediate and refractory as follows: Amax<-40 & Inflection Point <2 ~ Sensitive, Amax>-20 & Inflection Point >10 ~ Refractory, all else were called Intermediate. Cancer Cell line HG-U133 Plus 2 data was processed and normalized as described. […] Five sets of refractory cell lines were generated from the pool of refractory cell lines trying to match the lineage composition of the set of sensitive cell lines. The limma package was used as previously described to perform the statistical comparison.

[1] = NCI-H1666, cell line NCI-H1666 (lung)
[2] = NCI-H1703, cell line NCI-H1703 (lung)
[3] = NCI-H1734, cell line NCI-H1734 (lung)
[4] = NCI-H1793, NCI-H1793, lung, adenocarcinoma
[5] = NCI-H2122, NCI-H2122, lung, adenocarcinoma
[6] = NCI-H2405, NCI-H2405, lung, adenocarcinoma
[7] = NCI-H3255, NCI-H3255, lung, adenocarcinoma
[8] = NUGC-4, NUGC-4, stomach, signet_ring_adenocarcinoma
[9] = OC-314, OC 314, ovary, serous_carcinoma
[10] = OCI-LY19, OCI-LY-19, haematopoietic_and_lymphoid_tissue, diffuse_large_B_cell_lymphoma
[11] = P12-Ichikawa, P12-ICHIKAWA cells
[12] = P12-Ichikawa, cell line P12-ICHIKAWA

SMILES: CC(C)[C@@]12C[C@@H](O)[C@@](C)(O1)[C@@H]1CC[C@@H](C)[C@H]1[C@@H]2OC(=O)/C=C/c1ccccc1 [Englerin B]
- pIC50 [1]: 4.65
- pEC50 [1]: 4.64
- pIC50 (NCI-H1693, cell line NCI-H1693 (lung)): < 4.52
- pIC50 (NCI-H1693, cell line NCI-H1693): < 4.52
- pIC50 [2]: 4.83
- pEC50 [2]: 4.64
- pIC50 [3]: 4.71
- pEC50 [3]: 4.71
- pIC50 (NCI-H1792, NCI-H1792, lung, adenocarcinoma): 4.60
- pIC50 (NCI-H1792, cell line NCI-H1792 (lung, adenocarcinoma)): 4.60
- pIC50 [4]: < 4.52
- pEC50 [4]: 4.65
- pIC50 (NCI-H1793, cell line NCI-H1793): < 4.52
- pIC50 (NCI-H1944, NCI-H1944, lung, adenocarcinoma): 4.80
- pIC50 (NCI-H1944, cell line NCI-H1944): 4.80
- pIC50 (NCI-H1975, NCI-H1975, lung, adenocarcinoma): < 4.52
- pIC50 (NCI-H1975, NCI-H1975 cells): < 4.52
- pIC50 [5]: < 4.52
- pEC50 [5]: 4.98
- pIC50 (NCI-H2122, cell line NCI-H2122): < 4.52
- pIC50 (NCI-H2126, NCI-H2126, lung, adenocarcinoma): < 4.52
- pIC50 (NCI-H2126, NCI-H2126 cells): < 4.52
- pIC50 (NCI-H2170, NCI-H2170, lung, squamous_cell_carcinoma): < 4.52
- pIC50 (NCI-H2170, cell line NCI-H2170): < 4.52
- pIC50 [6]: < 4.52
- pEC50 [6]: 4.83
- pIC50 (NCI-H2405, cell line NCI-H2405): < 4.52
- pIC50 (NCI-H2452, NCI-H2452, pleura, NS): < 4.52
- pIC50 (NCI-H2452, cell line NCI-H2452): < 4.52
- pIC50 [7]: 4.57
- pEC50 [7]: 4.57
- pIC50 (NCI-H3255, NCI-H3255 cells): 4.57
- pEC50 (NCI-H3255, NCI-H3255 cells): 4.57
- pIC50 (NUGC-3, NUGC-3, stomach, NS): < 4.52
- pIC50 (NUGC-3, NUGC-3 cells): < 4.52
- pIC50 [8]: 4.66
- pEC50 [8]: 4.80
- pEC50 (NUGC-4, NUGC-4 cells): 4.80
- pIC50 (OAW-42, OAW42, ovary, adenocarcinoma): < 4.52
- pIC50 (OAW-42, OAW42 cells): < 4.52
- pIC50 [9]: < 4.52
- pEC50 [9]: 4.83
- pIC50 (OC-314, OC 314 cells): < 4.52
- pEC50 (OC-314, OC 314 cells): 4.83
- pIC50 (OCI-AML2, OCI-AML2, haematopoietic_and_lymphoid_tissue, acute_myeloid_leukaemia): 4.79
- pIC50 (OCI-AML-3, OCI-AML3, haematopoietic_and_lymphoid_tissue, acute_myeloid_leukaemia): 4.74
- pIC50 [10]: 4.85
- pEC50 [10]: 4.83
- pEC50 (OCI-LY19, OCI-LY-19 cells): 4.83
- pIC50 (OCI-Ly3, OCI-LY3, haematopoietic_and_lymphoid_tissue, diffuse_large_B_cell_lymphoma): 4.88
- pIC50 (OE19, OE19, oesophagus, adenocarcinoma): 4.69
- pIC50 (OS-RC-2, OS-RC-2 cells): < 4.52
- pEC50 (OS-RC-2, OS-RC-2 cells): 4.94
- pIC50 (OS-RC-2, cell line OS-RC-2): < 4.52
- pEC50 (OS-RC-2, cell line OS-RC-2): 4.94
- pIC50 (OV-90, OV-90 cells): < 4.52
- pIC50 (OV-90, cell line OV-90): < 4.52
- pIC50 (OVCAR-4, cell line OVCAR-4): 4.53
- pIC50 (OVCAR-8, cell line OVCAR-8): 4.68
- pEC50 (OVSAHO, OVSAHO cells): 4.74
- pIC50 (OVSAHO, cell line OVSAHO): 4.63
- pEC50 (OVSAHO, cell line OVSAHO): 4.74
- pIC50 (P3HR-1, cell line P3HR-1): 4.59
- pIC50 [11]: 4.72
- pEC50 [11]: 4.72
- pIC50 [12]: 4.72
- pEC50 [12]: 4.72
- pIC50 (P31-FUJ, cell line P31/FUJ): 4.71
- pIC50 (PANC-1, cell line PANC-1): 4.62
- pIC50 (PANC-03-27, cell line Panc 03.27): 4.67
- pIC50 (PC-14, cell line PC-14): 4.67
- pEC50 (PF-382, PF-382 cells): 4.88
- pIC50 (PF-382, cell line PF-382): 4.78
- pEC50 (PF-382, cell line PF-382): 4.88
- pIC50 (PLC-PRF-5, PLC/PRF/5 (liver)): 4.84
- pIC50 (PLC-PRF-5, cell line PLC/PRF/5): 4.84
- pIC50 (PSN1, cell line PSN1): 4.53
- pIC50 (Panc 02.03, Panc 02.03 cells): < 4.52
- pIC50 (Panc 02.03, cell line Panc 02.03): < 4.52
- pIC50 (Panc 04.03, Panc 04.03 cells): < 4.52
- pIC50 (Panc 04.03, cell line Panc 04.03): < 4.52
- pEC50 (Panc1005, Panc 10.05 cells): 4.96
- pIC50 (Panc1005, cell line Panc 10.05): 4.88
- pEC50 (Panc1005, cell line Panc 10.05): 4.96
- pIC50 (RD, RD cells): < 4.52
- pIC50 (REH, Reh cells): 4.67
- pEC50 (REH, Reh cells): 4.67
- pIC50 (RPMI 8402, RPMI-8402 cells): 4.72
- pIC50 (RPMI 8402, cell line RPMI-8402): 4.72
- pIC50 (RPMI-7951, cell line RPMI-7951): 4.71
- pEC50 (RPMI-7951, cell line RPMI-7951): 4.86
- pIC50 (RPMI-8226, cell line RPMI 8226): 4.77
